Among the data in PubChem BioAssay (NCI) are GI50 and TGI values, retold here.

Some test systems named below: MDA-MB-435; CCRF-CEM leukemia; NCI-H522 lung; RXF 393 renal; NCI/ADR-RES ovarian; M14 melanoma; SK-OV-3 ovarian; SF-539 CNS; TK-10 renal; K-562 leukemia.
Test in all cases: NCI-60 cell line screen, 48 h

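Five compound concentrations were applied to cells in 96-well plates for 48 hours; endpoints were derived by simple linear interpolation of the resulting dose-response curve. GI50 is the concentration that inhibits growth by half. At the TGI there is no net growth.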

Turning to `CCOC(=O)c1ccccc1-c1c2ccc(=[N+](C)C)cc-2oc2cc(N(C)C)ccc12`, the GI50 with MDA-MB-435 is 0.255 µM; with CCRF-CEM leukemia, 0.42 µM; with NCI-H522 lung it was 0.306 µM; in the assay on RXF 393 renal it was 0.692 µM; in the assay on NCI/ADR-RES ovarian, 27.2 µM; in the assay on M14 melanoma, 0.448 µM. Moreover, the GI50 with SK-OV-3 ovarian is 0.306 µM; in the assay on SF-539 CNS it was 0.379 µM; in the assay on TK-10 renal it was 1.06 µM; in the assay with K-562 leukemia, 0.145 µM. Besides, the TGI is 5.71 µM in the assay with MDA-MB-435; more than 45.9 µM with CCRF-CEM leukemia; 16.4 µM in the assay with NCI-H522 lung; 7.58 µM with RXF 393 renal; more than 100 µM in the assay with NCI/ADR-RES ovarian; 10.9 µM in the assay with M14 melanoma. In addition, the TGI was 1.74 µM with SK-OV-3 ovarian, 5.33 µM in the assay on SF-539 CNS, 25.2 µM with TK-10 renal and more than 35.1 µM in the assay on K-562 leukemia.
In the case of `O=C(Nc1ccc(I)cc1F)c1cc(I)ccc1O`, the GI50 was 0.723 µM in the assay with MDA-MB-435; 0.943 µM in the assay with CCRF-CEM leukemia; 0.327 µM with NCI-H522 lung; 0.779 µM in the assay with RXF 393 renal; 0.791 µM in the assay with NCI/ADR-RES ovarian; 0.773 µM in the assay with M14 melanoma. The GI50 was 2.56 µM in the assay on SK-OV-3 ovarian, 0.651 µM with SF-539 CNS, 1.49 µM in the assay on TK-10 renal and 0.434 µM with K-562 leukemia. In addition, the TGI in the assay with MDA-MB-435 is 7.9 µM; in the assay on CCRF-CEM leukemia, more than 37.6 µM; in the assay with NCI-H522 lung, 21.8 µM; with RXF 393 renal, 3.24 µM; in the assay on NCI/ADR-RES ovarian it was 3.85 µM; in the assay on M14 melanoma it was 3.75 µM. Besides, the TGI in the assay with SK-OV-3 ovarian is more than 100 µM; with SF-539 CNS, 16.2 µM; in the assay on TK-10 renal, more than 64.5 µM; with K-562 leukemia it was more than 100 µM.
For `COc1ccc(NC(=O)/C=C(C)/C=C/C=C(C)\C=C\C2=C(C)CCCC2(C)C)cc1`, the GI50 in the assay on MDA-MB-435 is 48.2 µM; with CCRF-CEM leukemia it was 48 µM; in the assay on NCI-H522 lung, 28.2 µM; in the assay on RXF 393 renal, 25.5 µM; with NCI/ADR-RES ovarian, 60.6 µM; in the assay with M14 melanoma, more than 100 µM. For the same molecule, the GI50 with SK-OV-3 ovarian was more than 100 µM; with SF-539 CNS, 48.8 µM; in the assay with TK-10 renal, more than 100 µM; in the assay with K-562 leukemia, 30.3 µM. The TGI in the assay on MDA-MB-435 was more than 100 µM; in the assay on CCRF-CEM leukemia, more than 100 µM; in the assay with NCI-H522 lung it was more than 100 µM; in the assay with RXF 393 renal, 76.1 µM; in the assay with NCI/ADR-RES ovarian, more than 100 µM; in the assay with M14 melanoma, more than 100 µM. Also, the TGI in the assay on SK-OV-3 ovarian, in the assay on SF-539 CNS, in the assay on TK-10 renal and in the assay on K-562 leukemia was more than 100 µM in each case.
As for `O=S(=O)(O)ONC1=NCCN1`, the GI50 with MDA-MB-435 was more than 100 µM; in the assay on CCRF-CEM leukemia, 43.4 µM; in the assay with NCI-H522 lung, more than 100 µM; in the assay with RXF 393 renal it was 66.7 µM; in the assay on NCI/ADR-RES ovarian, more than 100 µM; in the assay on M14 melanoma, more than 100 µM. The GI50 in the assay on SK-OV-3 ovarian, in the assay on SF-539 CNS, in the assay with TK-10 renal and in the assay on K-562 leukemia was more than 100 µM in each case. Moreover, the TGI with MDA-MB-435, in the assay on CCRF-CEM leukemia, in the assay with NCI-H522 lung, in the assay with RXF 393 renal, with NCI/ADR-RES ovarian and in the assay on M14 melanoma was more than 100 µM throughout. In addition, the TGI in the assay with SK-OV-3 ovarian, in the assay on SF-539 CNS, with TK-10 renal and in the assay with K-562 leukemia was more than 100 µM throughout.
Regarding `O=C1c2ccccc2-c2c1c1ccccc1c(=O)n2-c1ccccc1`, the TGI is more than 100 µM in the assay with MDA-MB-435; more than 100 µM in the assay with CCRF-CEM leukemia; more than 100 µM with NCI-H522 lung; 15 µM in the assay with RXF 393 renal; 40.8 µM with NCI/ADR-RES ovarian; more than 100 µM in the assay on M14 melanoma. Besides, the TGI in the assay on SK-OV-3 ovarian is 26.4 µM; in the assay with SF-539 CNS, 12.3 µM; in the assay with TK-10 renal it was 27 µM; with K-562 leukemia it was more than 100 µM.
As for `O=[As]c1ccc(C(=O)c2ccc(Oc3ccccc3)cc2)cc1` (stereo not given), the GI50 with MDA-MB-435 was 0.0396 µM; in the assay with CCRF-CEM leukemia, 0.0191 µM; in the assay with NCI-H522 lung, 0.0219 µM; with RXF 393 renal it was 0.0404 µM; with NCI/ADR-RES ovarian it was 0.0378 µM; in the assay on M14 melanoma it was 0.0695 µM. The GI50 with SK-OV-3 ovarian was 0.12 µM; in the assay on SF-539 CNS it was 0.066 µM; in the assay with TK-10 renal, 0.063 µM; in the assay with K-562 leukemia, 0.0188 µM. For the same molecule, the TGI in the assay on MDA-MB-435 stood at 0.176 µM; in the assay with CCRF-CEM leukemia, 0.155 µM; in the assay with NCI-H522 lung, 0.0865 µM; with RXF 393 renal, 0.143 µM; in the assay on NCI/ADR-RES ovarian it was 0.143 µM; in the assay with M14 melanoma it was 0.202 µM. The TGI with SK-OV-3 ovarian is 0.249 µM; with SF-539 CNS, 0.218 µM; in the assay on TK-10 renal it was 0.19 µM; in the assay on K-562 leukemia it was 0.117 µM.
As for `OC(COc1cccc2ccccc12)CN1CCN(c2ccccc2Cl)CC1` (stereo not given), the GI50 with MDA-MB-435 was 14.5 µM; in the assay with CCRF-CEM leukemia, 11.4 µM; in the assay on NCI-H522 lung, 10.6 µM; in the assay on RXF 393 renal, 16.5 µM; with NCI/ADR-RES ovarian, 13.2 µM; in the assay with M14 melanoma, 14.3 µM. Moreover, the GI50 with SK-OV-3 ovarian is 16.8 µM; in the assay on SF-539 CNS it was 16.5 µM; in the assay with TK-10 renal, 5.58 µM; in the assay on K-562 leukemia, 4.58 µM. In addition, the TGI stood at 30.4 µM with MDA-MB-435; 69.1 µM in the assay on CCRF-CEM leukemia; 25.1 µM in the assay with NCI-H522 lung; 30.8 µM with RXF 393 renal; 28.6 µM in the assay with NCI/ADR-RES ovarian; 29.4 µM in the assay with M14 melanoma. In addition, the TGI with SK-OV-3 ovarian was 37.8 µM; in the assay on SF-539 CNS, 32.8 µM; with TK-10 renal it was 17.1 µM; with K-562 leukemia, 17.6 µM.
Consider `Oc1c(CN2CCOCC2)cc(COCc2ccccc2)c2cccnc12`, for which the GI50 was 6.5 µM in the assay on MDA-MB-435; 0.494 µM in the assay with CCRF-CEM leukemia; 1.79 µM in the assay with NCI-H522 lung; 3.25 µM in the assay on RXF 393 renal; 0.287 µM with NCI/ADR-RES ovarian; 1.59 µM in the assay with M14 melanoma. The GI50 is 3 µM in the assay with SK-OV-3 ovarian, 2.24 µM in the assay with SF-539 CNS, 3.75 µM with TK-10 renal and 2.74 µM in the assay on K-562 leukemia. Also, the TGI in the assay with MDA-MB-435 is more than 100 µM; in the assay with CCRF-CEM leukemia, more than 100 µM; in the assay with NCI-H522 lung, 8.56 µM; with RXF 393 renal, 72.7 µM; in the assay with NCI/ADR-RES ovarian, 1.88 µM; in the assay with M14 melanoma, 7.84 µM. Also, the TGI in the assay with SK-OV-3 ovarian is 22.2 µM; in the assay with SF-539 CNS it was 11.5 µM; in the assay with TK-10 renal, more than 100 µM; in the assay on K-562 leukemia it was more than 100 µM.
In the case of `CCOc1cc(C(C)(C)C)ccc1C1=N[C@@](C)(c2ccc(Cl)cc2)[C@@](C)(c2ccc(Cl)cc2)N1C(=O)N1CCN(CCS(C)(=O)=O)CC1`, the GI50 in the assay on MDA-MB-435 is 3.47 µM; in the assay with CCRF-CEM leukemia it was 2.6 µM; in the assay with NCI-H522 lung, 2.98 µM; in the assay with RXF 393 renal, 1.76 µM; in the assay with NCI/ADR-RES ovarian, 4.09 µM; in the assay with M14 melanoma it was 3.75 µM. Moreover, the GI50 in the assay with SK-OV-3 ovarian was 4.32 µM; with SF-539 CNS it was 2.32 µM; in the assay on TK-10 renal, 3.12 µM; with K-562 leukemia it was 3.9 µM. In addition, the TGI was 11.7 µM in the assay on MDA-MB-435; 7.45 µM in the assay on CCRF-CEM leukemia; 10.2 µM in the assay on NCI-H522 lung; 3.74 µM with RXF 393 renal; 24.4 µM in the assay on NCI/ADR-RES ovarian; 14.6 µM in the assay with M14 melanoma. The TGI was 16.1 µM in the assay with SK-OV-3 ovarian, 6.16 µM in the assay on SF-539 CNS, 10.3 µM with TK-10 renal and 21.7 µM in the assay with K-562 leukemia.
For the molecule `O=C(Nc1cc(-c2cccnc2)nc(NCCCN2CCOCC2)n1)c1cc(Br)cc(C(F)(F)F)c1`, the GI50 in the assay on MDA-MB-435 was 1.66 µM; in the assay with CCRF-CEM leukemia it was 3.54 µM; in the assay on NCI-H522 lung, 1.95 µM; in the assay on RXF 393 renal it was 1.8 µM; in the assay on NCI/ADR-RES ovarian, 2.6 µM; in the assay with M14 melanoma, 1.67 µM. Moreover, the GI50 in the assay on SK-OV-3 ovarian is 7.26 µM; with SF-539 CNS, 1.67 µM; in the assay on TK-10 renal, 5.07 µM; with K-562 leukemia, 2.8 µM. Moreover, the TGI in the assay on MDA-MB-435 came to 3.15 µM; in the assay on CCRF-CEM leukemia, 12.9 µM; in the assay with NCI-H522 lung, 5.31 µM; in the assay on RXF 393 renal, 3.61 µM; with NCI/ADR-RES ovarian, 9.11 µM; in the assay on M14 melanoma, 3.32 µM. Further, the TGI with SK-OV-3 ovarian was found to be 19.9 µM; with SF-539 CNS, 3.47 µM; in the assay on TK-10 renal, 18.1 µM; with K-562 leukemia, 21.7 µM.
Regarding `COC(=O)[C@]12CC[C@@H](C)[C@H](C)[C@@H]1C1=CC[C@@H]3[C@@]4(C)CC(=O)[C@H](OC(=O)c5ccco5)[C@@]5(C)COC(=C45)C[C@@]3(C)[C@]1(C)CC2`, the GI50 was 0.763 µM in the assay on MDA-MB-435; 0.767 µM in the assay on CCRF-CEM leukemia; 3.1 µM in the assay on NCI-H522 lung; 67.9 µM in the assay with RXF 393 renal; 6.37 µM with NCI/ADR-RES ovarian; 0.654 µM in the assay with M14 melanoma. The GI50 was 4.67 µM with SK-OV-3 ovarian, 7.56 µM in the assay on SF-539 CNS, 30.8 µM in the assay with TK-10 renal and 0.413 µM in the assay with K-562 leukemia. In addition, the TGI with MDA-MB-435, in the assay on CCRF-CEM leukemia, in the assay on NCI-H522 lung, with RXF 393 renal, in the assay on NCI/ADR-RES ovarian and in the assay on M14 melanoma was more than 100 µM each time. In addition, the TGI in the assay with SK-OV-3 ovarian, in the assay with SF-539 CNS, with TK-10 renal and with K-562 leukemia was more than 100 µM throughout.
